Measured values as given in US12172983B2, “EGFR inhibitors” (Blueprint Medicines Corporation, priority 2019, dated 2024).
Like-named read-outs stand apart in the source and are kept apart here.

Tests used:
EGFR (L858R T790M C797S) = target: T1, EGFR (L858R T790M C797S) (Homo sapiens, UniProt P00533, C797S/L858R/T790M); experiment: Biochemical EGFR inhibition assay (Caliper mobility shift), EGFR LRTMCS mutant; details: inhibitory activity against EGFR LRTMCS mutant; apparent IC50; read-out: Ext Enz LRTMCS
T1 construct: purchased SignalChem E10-122VG
T1 sequence (P00533 25-1210 T790M/C797S/L858R): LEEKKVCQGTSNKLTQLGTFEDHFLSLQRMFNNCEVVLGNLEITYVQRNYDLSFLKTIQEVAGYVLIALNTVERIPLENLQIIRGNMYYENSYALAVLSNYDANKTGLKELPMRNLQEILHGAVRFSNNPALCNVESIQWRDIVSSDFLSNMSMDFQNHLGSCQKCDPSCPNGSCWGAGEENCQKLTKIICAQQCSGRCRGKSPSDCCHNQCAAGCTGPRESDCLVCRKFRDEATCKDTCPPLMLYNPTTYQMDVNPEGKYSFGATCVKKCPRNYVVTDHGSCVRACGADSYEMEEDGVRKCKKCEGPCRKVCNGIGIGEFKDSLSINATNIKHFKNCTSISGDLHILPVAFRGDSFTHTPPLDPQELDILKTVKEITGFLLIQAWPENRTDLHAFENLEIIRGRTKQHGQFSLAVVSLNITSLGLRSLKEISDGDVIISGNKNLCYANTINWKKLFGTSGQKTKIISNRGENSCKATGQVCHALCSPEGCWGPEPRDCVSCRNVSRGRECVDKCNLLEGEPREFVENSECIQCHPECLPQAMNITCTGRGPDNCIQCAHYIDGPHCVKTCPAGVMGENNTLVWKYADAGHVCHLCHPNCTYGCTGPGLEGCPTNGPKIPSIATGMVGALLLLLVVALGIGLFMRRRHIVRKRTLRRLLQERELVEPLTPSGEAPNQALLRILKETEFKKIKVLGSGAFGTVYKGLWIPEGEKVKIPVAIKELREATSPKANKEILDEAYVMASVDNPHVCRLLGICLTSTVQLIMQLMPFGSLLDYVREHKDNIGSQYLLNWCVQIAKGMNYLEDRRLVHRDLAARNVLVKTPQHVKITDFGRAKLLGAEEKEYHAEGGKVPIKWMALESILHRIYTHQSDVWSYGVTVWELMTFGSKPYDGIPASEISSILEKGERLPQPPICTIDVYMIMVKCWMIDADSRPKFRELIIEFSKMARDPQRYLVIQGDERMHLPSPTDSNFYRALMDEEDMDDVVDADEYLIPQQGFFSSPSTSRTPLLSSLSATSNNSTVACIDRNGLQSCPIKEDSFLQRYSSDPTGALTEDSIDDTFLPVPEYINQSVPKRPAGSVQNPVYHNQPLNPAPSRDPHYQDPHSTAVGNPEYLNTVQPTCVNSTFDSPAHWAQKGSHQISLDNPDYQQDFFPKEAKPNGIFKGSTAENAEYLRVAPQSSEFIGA
Method in brief: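 Kinase reactions at 25 °C run to 10–20% peptide phosphorylation, stopped with 35 mM EDTA. Phosphorylated product and substrate separated electrophoretically by mobility shift. Apparent IC50 from percent activity versus log compound concentration.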

[1] = test system: phosphorylation of EGFR (Tyr1068) in NCI-H1975 cell line that harbors the EGFR L858R T790M mutations; experiment: NCI-H1975 pEGFR AlphaLISA assay; assay type: cell-based; details: 4-5 hours incubation, read-out: Ext pEGFR H1975
Method in brief: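 Phospho-EGFR Tyr1068 AlphaLISA readout: lysates taken from compound-treated H1975 cells (L858R T790M EGFR) after a 4-5 h exposure at 37 °C. Cells had adhered overnight beforehand. IC50 derived by plotting % pEGFR inhibition against log compound concentration.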

[2] = Homo sapiens, NCI-H1975, inhibition of phosphorylation of mutant EGFR in NCI-H1975 cells
[3] = inhibition of phosphorylation of mutant EGFR in NCI-H1975 cells

## CC(C)c1cnc(N2CC(CS(=O)(=O)C(C)C)C2)c2cnc(Nc3ccnc(N4CC[C@@H](O)[C@@](C)(F)C4)n3)cc12 (single isomer, unassigned) [Compound 188]
EGFR (L858R T790M C797S)
  IC50: ≤ 15 nM
[1]; [2]
  IC50: ≤ 10 nM

## [2H]C([2H])([2H])O[C@H]1CCN(c2nccc(Nc3cc4c(C(C)C)ccc(N5CC(CS(C)(=O)=O)C5)c4cn3)n2)C[C@H]1F (single isomer, unassigned) [Compound 81]
EGFR (L858R T790M C797S)
  IC50: ≤ 15 nM
[1]; [2]
  IC50: ≤ 10 nM

## CCS(=O)(=O)CC1CN(c2ccc(C)c3cc(Nc4ccnc(N5C[C@@H](F)[C@@H](O)C(C)(C)C5)n4)ncc23)C1 (single isomer, unassigned) [Compound 60, (4S,5R)-1-{4-[(8-{3-[(ethanesulfonyl)methyl]azetidin-1-yl}-5-methylisoquinolin-3-yl)amino]pyrimidin-2-yl}-5-fluoro-3,3-dimethylpiperidin-4-ol or (4R,5S)-1-{4-[(8-{3-[(ethanesulfonyl)methyl]azetidin-1-yl}-5-methylisoquinolin-3-yl)amino]pyrimidin-2-yl}-5-fluoro-3,3-dimethylpiperidin-4-ol]
EGFR (L858R T790M C797S)
  IC50: ≤ 15 nM
[1]; [2]
  IC50: 20.1 to 30 nM

## CCS(=O)(=O)C[C@H]1CN(c2cnc(C(C)C)c3cc(Nc4ccnc(N5CC[C@H](OCCO)[C@H](F)C5)n4)ncc23)[C@@H]1C [Compound 299, 2-{[(3R,4S)-1-[4-({8-[(2R,3S)-3-[(ethanesulfonyl)methyl]-2-methylazetidin-1-yl]-5-(propan-2-yl)-2,6-naphthyridin-3-yl}amino)pyrimidin-2-yl]-3-fluoropiperidin-4-yl]oxy}ethan-1-ol]
EGFR (L858R T790M C797S)
  IC50: ≤ 15 nM
[1]; [2]
  IC50: ≤ 10 nM

## [2H]C([2H])([2H])O[C@H]1CCN(c2nccc(Nc3cc4c(C(C)C)ccc(N5CC(CS(C)(=O)=O)C5)c4cn3)n2)CC1(F)F (single isomer, unassigned) [Compound 287, N-{2-[(4R)-3,3-difluoro-4-(^2H3)methoxypiperidin-1-yl]pyrimidin-4-yl}-8-[3-(methanesulfonylmethyl)azetidin-1-yl]-5-(propan-2-yl)isoquinolin-3-amine or N-{2-[(4S)-3,3-difluoro-4-(^2H3)methoxypiperidin-1-yl]pyrimidin-4-yl}-8-[3-(methanesulfonylmethyl)azetidin-1-yl]-5-(propan-2-yl)isoquinolin-3-amine]
EGFR (L858R T790M C797S)
  IC50: 20.1 to 30 nM
[1]; [3]
  IC50: 10.1 to 20 nM

## CCS(=O)(=O)C[C@H]1CN(c2ccc(C(C)C)c3cc(Nc4ccnc(N5CC[C@@](C)(O)[C@@H](F)C5)n4)ncc23)[C@@H]1C (single isomer, unassigned) [Compound 186]
EGFR (L858R T790M C797S)
  IC50: ≤ 15 nM
[1]; [2]
  IC50: ≤ 10 nM

## CC(C)c1cnc(N2C[C@H](CS(C)(=O)=O)[C@H]2C)c2cnc(Nc3ccnc(N4CC[C@H](OCC(C)(C)O)[C@H](F)C4)n3)cc12 [Compound 259, 1-{[(3R,4S)-3-fluoro-1-[4-({8-[(2R,3S)-3-(methanesulfonylmethyl)-2-methylazetidin-1-yl]-5-(propan-2-yl)-2,7-naphthyridin-3-yl}amino)pyrimidin-2-yl]piperidin-4-yl]oxy}-2-methylpropan-2-ol]
EGFR (L858R T790M C797S)
  IC50: ≤ 15 nM
[1]; [2]
  IC50: ≤ 10 nM

## CCS(=O)(=O)CC1CN(c2ccc(C(C)C)c3cc(Nc4ccnc(N5C[C@@H](O)[C@@H](OC)C(F)(F)C5)n4)ncc23)C1 (single isomer, unassigned) [Compound 294, (3R,4R)-1-{4-[(8-{3-[(ethanesulfonyl)methyl]azetidin-1-yl}-5-(propan-2-yl)isoquinolin-3-yl)amino]pyrimidin-2-yl}-5,5-difluoro-4-methoxypiperidin-3-ol or (3S,4S)-1-{4-[(8-{3-[(ethanesulfonyl)methyl]azetidin-1-yl}-5-(propan-2-yl)isoquinolin-3-yl)amino]pyrimidin-2-yl}-5,5-difluoro-4-methoxypiperidin-3-ol]
EGFR (L858R T790M C797S)
  IC50: 20.1 to 30 nM
[1]; [2]
  IC50: ≤ 10 nM

## [2H]C([2H])([2H])O[C@H]1CCN(c2nccc(Nc3cc4c(C(C)C)ccc(N5CC(CS(C)(=O)=O)C5)c4cn3)n2)CC1(F)F (single isomer, unassigned) [Compound 286, N-{2-[(4S)-3,3-difluoro-4-(^2H3)methoxypiperidin-1-yl]pyrimidin-4-yl}-8-[3-(methanesulfonylmethyl)azetidin-1-yl]-5-(propan-2-yl)isoquinolin-3-amine or N-{2-[(4R)-3,3-difluoro-4-(^2H3)methoxypiperidin-1-yl]pyrimidin-4-yl}-8-[3-(methanesulfonylmethyl)azetidin-1-yl]-5-(propan-2-yl)isoquinolin-3-amine]
EGFR (L858R T790M C797S)
  IC50: 15.1 to 20 nM
[1]; [2]
  IC50: 10.1 to 20 nM

## CO[C@H]1CCN(c2nccc(Nc3cc4c([C@@H](C)CO)cnc(N5C[C@H](CS(C)(=O)=O)[C@H]5C)c4cn3)n2)C[C@H]1F (single isomer, unassigned) [Compound 208, (2R)-2-[6-({2-[(3R,4S)-3-fluoro-4-methoxypiperidin-1-yl]pyrimidin-4-yl}amino)-1-[(2R,3S)-3-(methanesulfonylmethyl)-2-methylazetidin-1-yl]-2,7-naphthyridin-4-yl]propan-1-ol or (2S)-2-[6-({2-[(3R,4S)-3-fluoro-4-methoxypiperidin-1-yl]pyrimidin-4-yl}amino)-1-[(2R,3S)-3-(methanesulfonylmethyl)-2-methylazetidin-1-yl]-2,7-naphthyridin-4-yl]propan-1-ol]
EGFR (L858R T790M C797S)
  IC50: ≤ 15 nM
[1]; [2]
  IC50: 10.1 to 20 nM

## CO[C@H]1CCN(c2nccc(Nc3cc4c(C(C)C)ccc(N5CC(CS(C)(=O)=O)C5)c4cn3)n2)C[C@@H]1O (single isomer, unassigned) [Compound 53, (3S,4S)-1-[4-({8-[3-(methanesulfonylmethyl)azetidin-1-yl]-5-(propan-2-yl)isoquinolin-3-yl}amino)pyrimidin-2-yl]-4-methoxypiperidin-3-ol or (3R,4R)-1-[4-({8-[3-(methanesulfonylmethyl)azetidin-1-yl]-5-(propan-2-yl)isoquinolin-3-yl}amino)pyrimidin-2-yl]-4-methoxypiperidin-3-ol]
EGFR (L858R T790M C797S)
  IC50: ≤ 15 nM
[1]; [3]
  IC50: ≤ 10 nM

## CC(C)c1ccc(N2C[C@H](CS(C)(=O)=O)[C@H]2C)c2cnc(Nc3ccnc(N4CC[C@H](F)[C@H](O)C4)n3)cc12 (single isomer, unassigned) [Compound 268, (3R,4S)-4-fluoro-1-[4-({8-[(2R,3S)-3-(methanesulfonylmethyl)-2-methylazetidin-1-yl]-5-(propan-2-yl)isoquinolin-3-yl}amino)pyrimidin-2-yl]piperidin-3-ol or (3S,4R)-4-fluoro-1-[4-({8-[(2R,3S)-3-(methanesulfonylmethyl)-2-methylazetidin-1-yl]-5-(propan-2-yl)isoquinolin-3-yl}amino)pyrimidin-2-yl]piperidin-3-ol]
EGFR (L858R T790M C797S)
  IC50: 30.1 to 100 nM
[1]; [2]
  IC50: 20.1 to 30 nM

## CNCCO[C@@H]1CCN(c2nccc(Nc3cc4c(C(C)C)ccc(N5C[C@H](CS(C)(=O)=O)[C@H]5C)c4cn3)n2)CC1(F)F (single isomer, unassigned) [Compound 301, N-{2-[(4S)-3,3-difluoro-4-[2-(methylamino)ethoxy]piperidin-1-yl]pyrimidin-4-yl}-8-[(2R,3S)-3-(methanesulfonylmethyl)-2-methylazetidin-1-yl]-5-(propan-2-yl)isoquinolin-3-amine or N-{2-[(4R)-3,3-difluoro-4-[2-(methylamino)ethoxy]piperidin-1-yl]pyrimidin-4-yl}-8-[(2R,3S)-3-(methanesulfonylmethyl)-2-methylazetidin-1-yl]-5-(propan-2-yl)isoquinolin-3-amine]
EGFR (L858R T790M C797S)
  IC50: ≤ 15 nM
[1]; [3]
  IC50: ≤ 10 nM

## CO[C@@H]1CCN(c2nncc(Nc3cc4c(C(C)C)ccc(N5CC(CS(C)(=O)=O)C5)c4cn3)n2)C[C@@H]1F [Compound 75, N-{3-[(3S,4R)-3-fluoro-4-methoxypiperidin-1-yl]-1,2,4-triazin-5-yl}-8-[3-(methanesulfonylmethyl)azetidin-1-yl]-5-(propan-2-yl)isoquinolin-3-amine]
EGFR (L858R T790M C797S)
  IC50: ≤ 15 nM
[1]; [2]
  IC50: ≤ 10 nM

## CO[C@@H]1CCN(c2nccc(Nc3cc4c(C(C)C)ccc(N5C[C@H](CS(C)(=O)=O)[C@H]5C)c4cn3)n2)C[C@]1(C)F (single isomer, unassigned) [Compound 185]
EGFR (L858R T790M C797S)
  IC50: 20.1 to 30 nM
[1]; [2]
  IC50: ≤ 10 nM

## CC(C)c1ccc(N2CC(CS(=O)(=O)C3CN(C)C3)C2)c2cnc(Nc3ccnc(N4CC[C@@H](O)[C@@](C)(F)C4)n3)cc12 (single isomer, unassigned) [Compound 238]
EGFR (L858R T790M C797S)
  IC50: ≤ 15 nM
[1]; [2]
  IC50: ≤ 10 nM

## CO[C@]1(C)CN(c2nccc(Nc3cc4c(C(C)C)ccc(N5CC(CS(C)(=O)=O)C5)c4cn3)n2)CC[C@@H]1O (single isomer, unassigned) [Compound 94, (3R,4S)-1-[4-({8-[3-(methanesulfonylmethyl)azetidin-1-yl]-5-(propan-2-yl)isoquinolin-3-yl}amino)pyrimidin-2-yl]-3-methoxy-3-methylpiperidin-4-ol or (3S,4R)-1-[4-({8-[3-(methanesulfonylmethyl)azetidin-1-yl]-5-(propan-2-yl)isoquinolin-3-yl}amino)pyrimidin-2-yl]-3-methoxy-3-methylpiperidin-4-ol]
EGFR (L858R T790M C797S)
  IC50: ≤ 15 nM
[1]; [2]
  IC50: 20.1 to 30 nM

## CC(C)c1ccc(N2CC(CS(C)(=O)=O)C2)c2cnc(Nc3ccnc(N4CCC(C)(O)CC4)n3)cc12 [Compound 17, 1-[4-({8-[3-(methanesulfonylmethyl)azetidin-1-yl]-5-(propan-2-yl)isoquinolin-3-yl}amino)pyrimidin-2-yl]-4-methylpiperidin-4-ol]
EGFR (L858R T790M C797S)
  IC50: ≤ 15 nM
[1]; [2]
  IC50: 10.1 to 20 nM
